Experimental data: patent US20210386761A1, “COMPOSITION FOR PREVENTING OR TREATING INFLAMMATORY BOWEL DISEASE, CONTAINING, AS ACTIVE INGREDIENT, TAURODEOXYCHOLIC ACID OR PHARMACEUTICALLY ACCEPTABLE SALT THEREOF” (SHAPERON INC., priority 2019, published 2021)

Tests used:
[1] = system: inflammatory bowel disease induced by 3% DSS administration for 7 days; assay: 3% DSS 7-day inflammatory bowel disease model, comparison with clinical prescription drugs; assay type: in vivo, mouse; conditions: 3% DSS 7 days
Experimental: (§1) In order to evaluate the clinical symptoms-improving efficacy in comparison with those by clinical prescription drugs, inflammatory bowel disease was induced by 7-day or repeated administration of 3% or 2.5% DSS solution, and tofacitinib 10 mg/kg, 5-ASA 100 mg/kg or 200 mg/kg, prednisolone 1 mg/kg, and TDCA 2.5 mg/kg were administered one time a day from the start date of DSS administration. From the start date of DSS administration, TDCA 2.5 mg/kg was administered one time a day (QD), two times a day (BID), and three times a day (TID).
(§2) The disease activity indexes (DAI) including body weight, body weight loss, stool consistency, and bloody stool were measured daily. DAI was scored according to the following [Table 1].
After the experiment was completed, the mice were euthanized with CO2 and the bowels were excised. Next, the bowels were put in cold 1×DPBS and the remaining mesenteric adipose tissue was isolated. At this time, the colon length was measured. Next, the tail end of the colon was opened and wound up with scissors to obtain colon tissue. The obtained colon tissue was fixed in 10% neutral buffered formalin (Sigma-Aldrich, HT501128-4L, St. Louis, Mo., USA) at room temperature for 48 hours and then treated in a tissue processor (Excelsior ES, Thermo scientific, Waltham, Mass., USA) for 12 hours. The processed tissue was sectioned and paraffinized using a microtome (Microm, HM 340E, Thermo Scientific, Waltham, Mass., USA) and an embedding system (HistoStar, Thermo Scientific, Waltham, Mass., USA). Next, the processed tissue was stained with hematoxylin and eosin, and visualized under an optical microscope (Motic, BA310, Redding, Calif., USA) to confirm the histopathological state, and the histopathological state was scored to histological score according to the criteria in the following [Table 2].

[2] = system: chronic inflammatory bowel disease model induced with 2.5% DSS; assay: Chronic inflammatory bowel disease model, repeated 2.5% DSS, comparison with clinical prescription drugs; assay type: in vivo, mouse
Experimental: as §1

[3] = system: TGR5 knockout (TGR5−/−) inflammatory bowel disease-induced mouse model; assay: Clinical symptom analysis in DSS-induced TGR5 knock-out (TGR5−/−) mouse model; assay type: in vivo; conditions: TGR5−/− mice, 2% DSS 10 days
Experimental: as §2
Specifically, C57BL/6-Gpbar1^tm1(KOMP)Vlcg mice (TGR5 KO, KOMP Repository, The Knockout Mouse Project, University of California, Davis, Calif.) were used as TGR5 knockout (TGR5^−/−) female C57BL/6 mice. The TGR5^−/− female C57BL/6 mice or TGR5 normal (WT) female C57BL/6 mice were fed with a 2% DSS solution or DPBS together with drinking water for 10 days from Day 0 of the experiment by the same method as that described in <Example 1>. DPBS or 5 mg/kg TDCA was administered to the mice by oral gavage one time a day for 11 days from Day 1 of the experiment, and the body weight and DAI were measured daily. As a control, mice freely fed with drinking water were used.

[4] = system: inflammasome activity of bone marrow-derived macrophages; assay: Inhibition of IL-1β secretion of bone marrow-derived macrophages (LPS then ATP or BzATP); assay type: cell-based; conditions: Mus musculus, Macrophage, LPS 10 ng/ml 3 h, TDCA 1 h, ATP 0.5 mM or BzATP 0.3 mM 1 h, FIGS. 10A and 10B
Experimental: Bone marrow was collected from a DPBS-administered mouse which had been subjected to an experiment by the same method as that described in <Example 2>, induced to differentiate into macrophages, then pretreated with LPS (10 ng/ml) for 3 hours so as to be 4×10^4 cells in a 96-well plate, treated with TDCA at various concentrations for 1 hour, then treated with ATP (0.5 mM) or BzATP (0.3 mM) for an additional 1 hour, and cultured, and the amount of IL-1β in the cell culture was measured and analyzed using an ELISA kit (R & D systems, USA) according to the manufacturer's procedure.

[5] = system: IL-6; assay: Pro-inflammatory cytokine ELISA of colon tissue, IL-6; assay type: in vivo, mouse; conditions: for IL-6 in the colon tissue: Day 7
Experimental: as §1
A colon was obtained from a mouse which had been subjected to an experiment by the same method as that described in <Example 2>, the peripheral colon was cut into 2 cm in length and the weight was recorded. Next, the colon was chopped into 1 mm pieces and frozen on ice, treated with 500 μl of cold DPBS containing protease inhibitor (Roche, 11836170001, Basel, Switzerland), and homogenized for 10 to 20 seconds using an electric homogenizer (IKA T10 Basic, Wilmington, SE, USA). The homogenate was centrifuged at 4° C. for 10 minutes at 12,000×g to obtain a supernatant. ELISA analysis was performed using the obtained supernatant, IL-6 DuoSet ELISA kit (R & D systems, USA), IL-1β DuoSet ELISA kit (R & D systems, USA), and TNF-α DuoSet ELISA kit (R & D systems, USA) according to the manufacturer's procedure to confirm the production of pro-inflammatory cytokines.
(§3) Specifically, female C57BL/6 mice were fed with a 2% DSS solution together with drinking water for 7 days from Day 0 of the experiment by the same method as that described in <Example 1>, DPBS or 5 mg/kg TDCA was administered to the mice by oral gavage one time a day for 6 days from Day 1 of the experiment, and the body weight and DAI were measured daily. As a control, mice freely fed with drinking water were used. Next, the mice were sacrificed on Day 7 of the experiment by the same method as that described in <Example 3>, and inflammatory cell and proinflammatory cytokine analysis was performed.
as §3, with “oral gavage from Day” for “oral gavage one time a day for 6 days from Day”, “1 of DSS administration or 2 days before DSS administration, and the” for “1 of the experiment, and the”, “3>, and the inflammatory cell” for “3>, and inflammatory cell”

C[C@H](CCC(=O)NCCS(=O)(=O)O)[C@H]1CC[C@H]2[C@@H]3CC[C@@H]4C[C@H](O)CC[C@]4(C)[C@H]3C[C@H](O)[C@]12C [TDCA, sodium taurodeoxycholic acid]
body weight change, compared with clinical prescription drugs ([1]; TDCA 2.5 mg/kg one time a day vs tofacitinib 10 mg/kg and 5-ASA 100 mg/kg, FIG. 9A): effect equivalent to those by tofacitinib 10 mg/kg and 5-ASA 100 mg/kg | DAI change, compared with clinical prescription drugs ([1]; TDCA 2.5 mg/kg one time a day vs tofacitinib 10 mg/kg and 5-ASA 100 mg/kg, FIG. 9B): effect equivalent to those by tofacitinib 10 mg/kg and 5-ASA 100 mg/kg | colon length, compared with clinical prescription drugs ([1]; TDCA 2.5 mg/kg vs tofacitinib 10 mg/kg and 5-ASA 100 mg/kg, FIG. 9C): effect equivalent to those by tofacitinib 10 mg/kg and 5-ASA 100 mg/kg | histological lesion index, compared with clinical prescription drugs ([1]; TDCA 2.5 mg/kg vs tofacitinib 10 mg/kg and 5-ASA 100 mg/kg, FIG. 9D): effect equivalent to those by tofacitinib 10 mg/kg and 5-ASA 100 mg/kg | body weight change, compared with clinical prescription drugs ([2]; TDCA 2.5 mg/kg QD, BID and TID vs tofacitinib 10 mg/kg and 5-ASA 200 mg/kg, FIG. 11A): effect equivalent to or higher than those by tofacitinib 10 mg/kg and 5-ASA 200 mg/kg | mortality, compared with clinical prescription drugs ([2]; TDCA 2.5 mg/kg, FIG. 11B): effect equivalent to or higher than those by clinical prescription drugs | initial body weight lost on Day 10 ([3]; 5 mg/kg TDCA oral gavage one time a day, FIG. 8A): about 27% | DAI change ([3]; 5 mg/kg TDCA, FIG. 8B): DAI was high | survival rate ([3]; 5 mg/kg TDCA, FIG. 8C): 60% | IC50 [4]: 60 to 90 nM | IL-6 in the colon tissue ([5]; 2% DSS 7 days, 5 mg/kg TDCA oral gavage, FIG. 3B): decreased | concentration of IL-6 in the colon tissue, compared with clinical prescription drugs ([5]; 3% DSS 7 days, TDCA 2.5 mg/kg vs tofacitinib 10 mg/kg and 5-ASA 100 mg/kg): equivalent to those by tofacitinib 10 mg/kg and 5-ASA 100 mg/kg | IL-6 in the colon tissue ([5]; DSS+TDCA group: 5 mg/kg TDCA from Day 1 of DSS, FIG. 7B): decreased | IL-6 in the colon tissue ([5]; DSS+preTDCA group: 5 mg/kg TDCA from 2 days before DSS, FIG. 7B): decreased
